Literature values as cited in patent US10028967B2, “Medicament” (Symrise AG, priority 2014, dated 2018).

Conditions: oral phenylephrine, compared to intravenous pseudoephedrine; reduced and variable

Compound: CNC[C@H](O)c1cccc(O)c1 [Phenylephrine]
- bioavailability: up to 38%
